Measurements from patent US6352996B1, “Liposomal prodrugs comprising derivatives of camptothecin and methods of treating cancer using these prodrugs” (priority 1999, dated 2002).
Like-named read-outs stand apart in the source and are kept apart here.

Experiments:
[1] = Stability of lactone form in human plasma; type: in vitro ADME; conditions: for Percent in plasma (lactone, percent of the initial lactone amount added): 1 μg/ml
Method: CPT or SF6A lactone was added to human plasma (1 μg/ml) and an incubation and lactone determination were made as described in Example 15. The lactone amount at each time-point was detected after removing the carboxylate form, and subsequently was calculated as percent of the initial lactone amount added. The results shown in this Table below were derived from one of the three independent experiments performed using different incubation times. The pattern of quantitation of the lactones was similar in all three experiments.

[2] = cited from earlier work
[3] = Closed lactone form in human plasma after oral administration; conditions: for % present as closed lactone form in human blood/plasma: after oral administration (FIGS. 2, 4, 5, 7, 8)
[4] = test system: U-937 cells; assay: Growth inhibition of U-937 cells treated with CPT esters; type: cell-based; conditions: 0.2 μM, 120 hr, percent of exponential growth of untreated cells (100%), mean of four estimates
Method: Growth inhibition of U-937 cells treated with various CPT esters.
Each identified compound was added to reach a culture of U-937 cell having a final concentration of 0.2 μM. The treatment time was for 120 hr. Growth inhibition in each of the treated cultures was then estimated as a percent of the exponential growth of the cells that was considered 100%. Each estimate was the mean value of four estimates.

[5] = Closed lactone form in plasma of mice after intrastomach administration; type: in vivo; conditions: mice, plasma after intrastomach administration (FIG. 1)
[6] = test system: SW48 colon carcinoma; conditions: interstomach 10 or 20 mg/kg in cottonseed oil, 5 days on/2 days off, fast and non-fast, day 13-34 (FIG. 9)
Source text: (§1) Swiss nude mice of the NIH high fertility strain were bred and maintained pathogen-free in a laboratory. (Giovanella, B. C. and Stehlin, J. S. “Heterotransplantation of human malignant tumors in ‘nude’ thymusless mice. I. Breeding and maintenance of ‘nude’ mice.” J. Natl. Cancer Inst. 51: 615-619; 1973.)
(§2) Human malignant carcinomas of the colon, breast, lung, ovary, stomach, pancreas, bladder, prostate, osteosarcoma and malignant melanomas were heterotransplanted directly from patients into the nude mice and passaged serially. In particular, the tumors CLO, MUR, CAS, SW 48, SQU and BRO as described in Giovanella, B. C., Stehlin, J. S., Shepard, R. C. and Williams, L. J. “Correlation between response to chemotherapy of human tumors in patients and in nude mice.” Cancer 52: 1146-1152; 1983, tumor SCH as described in Heim, S., Mandahl, N., Arheden, K., Giovanella, B. C., Yim, S. O., Stehlin, J. S., Jr. and Mitebman, F. “Multiple karyotypic abnormalities including structural rearrangements of 11P in cell lines from malignant melanomas.” Cancer Genet. Cytogent, 35:5-20; 1988, and Verschraegen, C., Ciovanella, B. C., Mendoza, J. T., Kozielski, A. J. and Stehlin, J. S., Jr. “Specific organ metastases of human melanoma cells injected into the arterial circulation of nude mice.” Anticancer Res., In Press, and tumor PC-3 as described in Invest. Urol. 17, 16-23, 1979, were used. […]

[7] = test system: SQU colon carcinoma; conditions: 10 mg/kg intrastomach or intramuscular, until day 111 (FIG. 15)
Source text: as §1, §2

[8] = test system: McC colon carcinoma; conditions: 20 mg/kg intrastomach or intramuscular twice a week, day 11 to day 25 (FIG. 14)
Method: (§3) One group of six nude mice where treated interstomach with 10 or 20 mg,/kg body weight Compound IA in cottonseed oil per day for five consecutive days with two day intervals of no treatment (i.e., five days of treatment then two days no treatment, and five day treatment and so on). Another group of six nude mice were treated with 10 or 20 mg/kg body weight Compound IA in the same manner. There were also two control groups of six nude mice each. The designation of “fast” means no food was fed to the mice for at least 12 hours before treatment and the designation of “non-fast” means fed normally. Thus, in this experiment, there were 4 groups of mice with 6 mice in each group.

[9] = test system: human tumor xenografts; conditions: nude mice
[10] = test system: 2774 ovarian carcinoma; conditions: for tumor size: day 41 (FIG. 13)
Method: as §3
The route of administration and the dosage regimen were the same as in FIG. 9 except there were only 5 mice in each group and only one control group was used.

[11] = test system: BRE stomach carcinoma; conditions: 10 and 20 mg/kg intrastomach, until day 34 (FIG. 11)
Source text: Human malignant carcinomas of the colon, breast, lung, ovary, stomach, pancreas, bladder, prostate, osteosarcoma and malignant melanomas were heterotransplanted directly from patients into the nude mice and passaged serially. […] Tumors DOY and HAR (undifferentiated non-oat cell carcinomas of the lung), DIL (a poorly differentiated squamous cell carcinoma of the lung), SPA (a moderately differentiated adenocarcinoma of the lung), LAN (an undifferentiated carcinoma of the ovary), and BRE (a moderately differentiated adenocarcinoma of the stomach) where heterotransplanted. For the experiments, the tumor tissue was finely minced in complete MEM medium and 0.5 ml of a 10% v/v suspension was inoculated subcutaneously on the upper back of groups of 10-30 mice. When the tumors became palpable and measurable in all the animals, they were divided into groups of 4-8 and treated with the desired dose of the drug in experiment or with the vehicle only for the controls,
The dosage regimen and manner of administration are the same as in FIG. 9 except there were 5 mice per group and only one control group.

[12] = test system: DOY lung carcinoma; conditions: 10 and 20 mg/kg intrastomach, day 34 (FIG. 12)
Source text: as §2

[13] = test system: BRO melanoma; conditions: 20 mg/kg intrastomach, 20 days (FIG. 10)
Source text: as §2

## CC[C@@]1(O)C(=O)OCc2c1cc1n(c2=O)Cc2cc3ccccc3nc2-1 [CPT, 20(S)-camptothecin]
[1]; Time 0 Hr
  Lactone % in Human Plasma: 100%
[1]; Time 1 Hr
  Lactone % in Human Plasma: 12%
[1]; Time 2 Hr
  Lactone % in Human Plasma: 0.5%
[1]; Time 4 Hr
  Lactone % in Human Plasma: 0%
[1]; Time 6 Hr
  Lactone % in Human Plasma: 0%
[1]; human plasma
  metabolite detected: the only metabolite detected is the ring-opened sodium carboxylate salt
[1]; human plasma, incubation time 0.0 hr
  Percent in plasma (lactone, percent of the initial lactone amount added): 100.0%
[1]; human plasma, incubation time 0.5 hr
  Percent in plasma (lactone, percent of the initial lactone amount added): 40.0%
[1]; human plasma, incubation time 1.0 hr
  Percent in plasma (lactone, percent of the initial lactone amount added): 12.0%
[1]; human plasma, incubation time 2.0 hr
  Percent in plasma (lactone, percent of the initial lactone amount added): 0.5%
[1]; human plasma, incubation time 4.0 hr
  Percent in plasma (lactone, percent of the initial lactone amount added): 0.0%
[1]; human plasma, incubation time 6.0 hr
  Percent in plasma (lactone, percent of the initial lactone amount added): 0.0%
[1]; human plasma, incubation time 27.0 hr
  Percent in plasma (lactone, percent of the initial lactone amount added): 0.0%
[1]; human, human plasma, read-out: half-life time of the drug with lactone intact
  half-life: 30 min
[2]
  solubility in water: insoluble in water
[3]
  % present as closed lactone form in human blood/plasma: 0.4%
[3]; humans, after oral administration (FIG. 2)
  closed ring lactone form, share of the area under the curve: about 0.4%
[4]
  Growth %: 0.0%
[5]
  closed lactone form, share of the area under the curve: approximately 54%

## CCC(=O)O[C@]1(CC)C(=O)OCc2c1cc1n(c2=O)Cc2cc3c([N+](=O)[O-])cccc3nc2-1 [Prodrug 11, 9-Nitrocamptothecin-20-O-propionate]
[6]
  tumor size: decline in the tumor size
[7]
  tumor size: essentially stabilized
[8]
  tumor size: increased slightly but then stabilized
[9]
  antitumor activity against xenografts of human tumors: even higher than the camptothecin analogue, Prodrug 2
[3]
  % present as closed lactone form in human blood/plasma: 68.7%
[3]; human, oral administration, versus CPT or 9NC
  increase of lactone share over the parent compound: more than twentyfold
[10]; 5 mice per group, day 41
  survival: all mice survived the experiment in each group
[10]; higher dosage (10 and 20 mg/kg tested) intrastomach
  tumor size: quite effective in reducing the tumor size
[10]; lesser dosage (10 and 20 mg/kg tested) intrastomach
  tumor size: steady increase in tumor size
[11]
  tumor size: prevention of the growth in the tumor size
[12]
  tumor size: dramatic reduction
[13]
  tumor size: decreased in size
